Patent publication US6461624B2, “Skin-protective composition” (priority 1997, dated 2002)

Legend:
Test in all cases: Cell survival / percentage killing of a culture exposed to an agent (viable counts)
MRSA strain S13 = type: cell-based, Methicillin Resistant Staphylococcus aureus; details: for Percentage of cells killed after 5 minutes exposure, MRSA (S13): 0.5% lauric acid Na salt and/or 0.25% Parabens Na salt, sodium salt
Method: (§1) Determination of the Cell Counts
(§2) This was achieved by a number of different techniques depending on the circumstances involved. The techniques used were:
(§3) 1. Standard spread plate technique
(§4) This involves spreading a 100 μl aliquot of the desired dilution onto well dried agar plates using an alcohol flamed hockey stick.
(§5) In this method 1 ml samples of the diluted culture are placed into a sterile petri dish and then sterile cooled agar is added. The plate is then gently swirled to facilitate a […] mixing of the sample and the agar and allowed to solidify before being incubated at the temperature of choice in an inverted manner.
(§6) 3. Spot/drop plating method
(§7) This method involves the placing of a sample or the diluted sample onto a pre-dried agar plate but the sample is allowed to dry into the plate. Usually an aliquot of 5-20 μl is chosen to be thus plated. This method offers the advantages of being both economical in terms of agar plates (several drops can be readily accommodated on one agar plate) and also accurate.
(§8) All plates were incubated for 16 hours before being counted.
(§9) All dilutions were carried out in ¼×Ringers solution and all bacteria were grown up in Tryptic Soy Broth (TSB)
(§10) Determination of the cell survival/percentage killing of a culture with respect to exposure to a given agent.
(§11) In this method a sample of a fresh overnight culture was titred and a sample (usually 5 mls) was added to either broth (100mls) containing the test reagents or sterile water (100 mls) and test agents.
(§12) Immediately a sample (T0) was taken and plated using one of the techniques listed above. At regular intervals thereafter other samples were also removed, diluted and plated.
(§13) Error is 1 standard deviation of the mean.

[1] = tested on: Ps. aeruginosa (lab isolate); type: cell-based, Pseudomonas aeruginosa; details: for Percentage of cells killed after 5 minutes exposure, Ps. aeruginosa: 0.5% lauric acid Na salt and/or 0.25% Parabens Na salt, sodium salt
Method: as §1, §2, §3, §4, §5, §6, §7, §8, §9, §10, §11, §12, §13

[2] = tested on: Vancomycin-resistant Enterococci; type: cell-based, Enterococcus; details: for killing effect / mode of action on Vancomycin-resistant Enterococci (in words): methyl/propyl paraben Na salt 0.25% (w/v) (1:1) and/or lauric acid Na salt 0.50% (w/v), sodium salt
Method: as §1, §2, §3, §4, §5, §6, §7, §8, §9, §10, §11, §12, §13

E. coli (lab isolate) = type: cell-based, Escherichia coli; details: 0.5% lauric acid Na salt and/or 0.25% Parabens Na salt
Method: as §1, §2, §3, §4, §5, §6, §7, §8, §9
Determination of the cell survival/percentage killing of a culture with respect to exposure to a given agent. […]

[3] = methyl/propyl paraben Na salt 0.25% (w/v) (1:1) and/or lauric acid Na salt 0.50% (w/v)

For CCCCCCCCCCCC(=O)[O-].[Na+] [lauric acid Na salt, lauric acid sodium salt], the “reduction of a population of MRSA” value (MRSA strain S13; 0.50% lauric acid Na salt, isolate S13 in water held at 37° C., over 2 hrs) was 99.8%, the “killing of MRSA” value (MRSA strain S13; 0.50% lauric acid Na salt, repeated experiment, after 30 mins) was 99.6% and the “killing of MRSA” value (MRSA strain S13; 1.75% lauric acid Na salt, isolate S13, over 2 hrs) was < 99.0%. For the same compound, the “Percentage of cells killed after 5 minutes exposure, MRSA (S13)” value (MRSA strain S13; listed as lauric acid) was “more than 97”, the “Percentage of cells killed after 5 minutes exposure, MRSA (S13)” value (MRSA strain S13) was >97 and the “killing effect / mode of action on MRSA isolate S13 (in words)” value (MRSA strain S13; [3]) was “does elicit killing effect”. The “Percentage of cells killed after 5 minutes exposure, Ps. aeruginosa” value ([1]; listed as lauric acid) was 13, the “Percentage of cells killed after 5 minutes exposure, Ps. aeruginosa” value [1] was >13 and the “killing effect / mode of action on Ps. aeruginosa (in words)” value [1, 3] was “not effective”. For the same compound, the “Percentage of cells killed after 5 minutes exposure, Vancomycin Resistant Enterococcus” value ([2]; 5 minutes, 0.5% lauric acid Na salt and/or 0.25% Parabens Na salt) was 100, the kill rate ([2]; after 5 mins) was 100% and the “survivors present when samples were plated” value ([2]; after 5 mins, T0 count 4.63×10^7 cfu/ml) was “no survivors”. The “killing effect / mode of action on Vancomycin-resistant Enterococci (in words)” value ([2]; listed as Lauric acid Na salt) was “bactericidal”, the “killing effect / mode of action on Vancomycin-resistant Enterococci (in words)” value ([2]; listed as lauric acid) was “totally destroyed” and the “survivors present when samples were plated” value ([2]; strain FPL050, after 5 mins) was “no survivors”. For the same compound, the “Percentage of cells killed after 5 minutes exposure, E. coli” value (E. coli (lab isolate)) was >90.
